Patent US10905750B2, “GRP78 antagonist that block binding of receptor tyrosine kinase orphan receptors as immunotherapy anticancer agents” (CREATIVE BIOTHERAPEUTICS, LLC, priority 2017, dated 2021)
Entries after “also recorded” stand apart in the source; their conditions may differ.

How the values were obtained:
[1] = test system: chemo-resistant colon cancer cells (DLD-1); test: WST-8 proliferation assay, DLD-1 (5 day); format: cell-based; details: Homo sapiens, DLD-1, 120 h; GRP78 10 ug/ml, 5 days; read-out: Proliferation Inhibition (5 day) IC50, Colon Cancer DLD-1
[2] = test system: BT549 human breast cancer cells; test: WST-8 proliferation assay, BT549 (5 day); format: cell-based; details: BT-549, 120 h, GRP78 10 ug/ml, 5 days, read-out: Proliferation Inhibition (5 day) IC50, Breast Cancer BT549
Procedure: The inhibition effect of GRP78 antagonist on metastatic triple-negative, chemo-resistant BT549 cells was assessed using a proliferation assay.

[3] = test system: mouse breast cancer cells, 4T1; test: WST-8 proliferation assay, 4T1 (5 day); format: cell-based; details: 120 h, GRP78 10 ug/ml, 5 days, read-out: Proliferation Inhibition (5 day) IC50, Mouse Breast Cancer 4T1
[4] = test system: Calu 6 lung carcinoma cells; test: Tumor cell proliferation assay 72 hours, Calu 6; format: cell-based
Procedure: (§1) For the proliferation assay, cells were plated in 96 well plates at approximately 3000 cells per well overnight. The media was removed and fresh media with 1% FBS containing 10 μg/ml GRP78 was added along with the GRP78 antagonists. The plates were incubated for 72 hours at 37 C in 8% CO2. After 72 hours, cell number was determined with a WST-8 cell proliferation kit (Sigma). […] The only tumor cell line tested to not be inhibited by GRP78 antagonists was HT29, a colon carcinoma cell line. From our previous data above, we know U87 and D54 have ROR1 expressed on their cell surfaces.

U87 glioma cells = test: Tumor cell proliferation assay 72 hours, U87; format: cell-based
Procedure: as §1

[5] = test system: HT29 colon carcinoma cells; test: Tumor cell proliferation assay 72 hours, HT29; format: cell-based
Procedure: as §1

293 Kidney fibroblasts = test: Proliferation assay 72 hours, 293 kidney normal cells; format: cell-based, human
Procedure: as §1

panel of tumor cells = test: Tumor cell proliferation assay 72 hours, whole panel; format: cell-based; details: in words
Procedure: as §1

D54 glioma cells = test: Tumor cell proliferation assay 72 hours, D54; format: cell-based
Procedure: as §1

GRP78 = molecular target: T1, GRP78 (Homo sapiens, UniProt P11021); test: GRP78 ELISA, direct binding of biotin-labelled kringles; details: FIG. 19A
T1 construct: purchased StressMarq
T1 sequence (P11021 19-654, species assumed): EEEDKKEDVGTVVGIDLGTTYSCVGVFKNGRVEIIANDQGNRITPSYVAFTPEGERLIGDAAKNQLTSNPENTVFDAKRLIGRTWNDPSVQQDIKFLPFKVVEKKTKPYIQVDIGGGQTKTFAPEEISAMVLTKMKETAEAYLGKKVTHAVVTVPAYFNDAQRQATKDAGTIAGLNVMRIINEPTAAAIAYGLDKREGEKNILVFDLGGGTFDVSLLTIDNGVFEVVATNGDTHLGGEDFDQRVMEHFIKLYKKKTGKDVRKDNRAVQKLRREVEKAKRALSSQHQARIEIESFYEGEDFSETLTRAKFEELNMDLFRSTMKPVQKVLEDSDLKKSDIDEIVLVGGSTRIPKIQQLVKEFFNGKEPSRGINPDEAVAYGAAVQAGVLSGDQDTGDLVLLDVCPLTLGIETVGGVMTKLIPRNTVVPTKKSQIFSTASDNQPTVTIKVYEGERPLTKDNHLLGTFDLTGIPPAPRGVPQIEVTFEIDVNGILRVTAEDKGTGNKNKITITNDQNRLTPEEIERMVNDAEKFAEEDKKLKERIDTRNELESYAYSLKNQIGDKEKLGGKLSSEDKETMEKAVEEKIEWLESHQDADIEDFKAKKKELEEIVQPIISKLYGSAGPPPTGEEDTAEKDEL
Excerpt: Recombinant K5-fragment biotin and Kr1 fragment-biotin were used for binding. Neutra-avidin-HRP was used to detect binding after washing with PBS.
To determine if ROR1 is expressed on immature dendritic cells, CD14^+ cells were isolated from human PBMCs and cultured in GM-CSF, and IL-4 for 7 days to produce immature DCs. […] This flow cytometry analysis supports the hypothesis that immature dendritic cells express ROR1 in which the ROR1 kringle domain binds to GRP78.
Comparison of GRP78 binding for the two kringle domains was performed by a GRP78 ELISA. GRP78 (StressMarq) (1 ug/ml@ 100 μl/well) was bound to a tissue culture coated 96 well plate overnight at 4° C. After washing 3× with PBS, the plates were blocked with superblock (Pierce) for 1 hour at room temperature. […] The plate was then washed 3× with PBS again and Neutra-avidin-HRP was added to the wells for 1 hour at room temperature. The wells were washed again with PBS and one step TMB (Pierce) was added to the wells with absorbance recorded after 30 minutes to measure kringle binding. […] To analyze these peptides for binding to GRP78, we used a 96 well competition binding assay. The assay consisted of binding GRP78 to a tissue coated 96 well plate as listed above. […] After the plate was washed, Neutra-avidin-HRP was added and bound K5 was measured by adding HRP substrate, TMB, as listed above.

[6] = test system: GRP78 treated dendritic cells; test: Tolerogenic phenotype of GRP78 treated dendritic cells (flow cytometry, IL-10 ELISA); format: cell-based, human; details: for maturity marker CD86 on DCs exposed to GRP78/LPS: FIG. 13; for activity for reversing the tolerogenic phenotype of dendritic cells induced by GRP78: dose dependent, in words; for potency in blocking B7H3 on DCs exposed to GRP78, relative to K5: flow cytometry, FIG. 9A
Procedure: Consequently surface GRP78 binding on tumor cells leads to chemo-resistance and proliferation. […] Immature dendritic cells were differentiated from isolated CD14^+ myeloid cells with the addition of GM-CSF and IL-4 for 7 days. GRP78 (10 μg/ml) was added to the cells to produce a tolerogenic phenotype showing up regulation of PD-L1, B7H4, B7H3, IL-10 and down regulation of CD86. Therefore our GRP78 antagonists can potently block the activity of GRP78 on dendritic cells.
FIG. 9A-9C illustrates increasing amounts of the GRP78 antagonists result in blocking GRP78 which reduces checkpoint protein expression on DCs. A tolerogenic dendritic cell phenotype is induced by soluble GRP78 binding. Myeloid CD14+ cells were co-stimulated for 7 days with IL-4, and GMCSF. On day 5 LPS along with or without GRP78 and GRP78 antagonists were added. On day 8, dendritic cells were fixed and stained for flow cytometry. The percent of B7H3, PD-L1, CD86 was measured by flowcytometry and compared to GRP78 untreated dendritic cells.
To determine if GRP78 antagonists can block the tolerogenic phenotype of GRP78 treated dendritic cells, we differentiated immature dendritic cells. From 20 million human pooled PBMCs (AllCells), we isolated about 2.5 million CD14+ monocytes using positive selection with a pluribead CD14 kit (Pluriselect). […] From our multiple studies, we can isolate about 2.5 million CD14+ monocytes from 20 million PBMCs using positive selection with pluribeads (Pluriselect). […] On day 8, cells were fixed and aliquots stained at 4 C for various tolerogenic DC markers: PD-I([…]), B7H4, […], CD86, CD14, ROR1. Stained cells were analyzed byflow cytometry analysis. All antibodies for the DC markers were PE labeled from BD PharMingen. The cytokine, IL-10 (ENZO Life Sciences), was assayed by ELISA (Sigma). Negative controls wells were with GRP78 and positive controls are without GRP78 but with LPS. […] All of these antagonists decreased expression of PD-L1, B7H4, B7H3, and IL-10 from mature dendritic cells and increased expression of the maturity marker CD86 on dendritic cells (FIGS. 9A-9C).

[7] = test system: MDA231 breast carcinoma cells; test: Tumor cell proliferation assay 72 hours, MDA231; format: cell-based
Procedure: as §1

ROR1 binding to GRP78 = molecular target: T2, ROR1 binding to GRP78 (Homo sapiens, UniProt P11021); test: Immunoprecipitation of ROR1 using GRP78-Biotin from D54 glioma cell lysate; details: D54 glioma cell-surface lysate, 100 nM, FIG. 5
T2 construct: purchased StressMarq; host or cells: ROR1 is endogenous, from D54 glioma cell lysate
T2 sequence (P11021 19-654): as the sequence (P11021 19-654, species assumed) above
Excerpt: The use of GRP78/ROR1 antagonists to break immune tolerance for the treatment of resistant cancers represents a major shift in cancer therapies. Few, if any, current anti-cancer therapies have anti-angiogenic, anti-tumor and immune modulatory activities similar to modified ROR1, ROR2, and K5 kringle domains. To understand what pathways could be responsible for these activities in tumor and dendritic cells, we used GRP78 binding and crosslinking pull down studies against the cell surface proteome of D54 glioma cells and dendritic cells. We have identified that ROR1 and ROR2 as a cell GRP78 surface receptor.
Since the mechanism of action is inconclusive for soluble, surface bound GRP78, we decided to identify the surface receptor for GRP78 on glioma (D54) cells. Using GRP78 (StressMarq) labeled with Biotin (Sigma, Mix-n-Match), pull down experiments were performed. 2×10(6) D54 glioma cells were grown in a T25 cm flask with full DMEM media overnight. The next day the media was removed and the cells were washed with ice cold PBS. To the attached cells ice cold octyl-lysis buffer (Pierce detergent cell lysis kit) was added and the cells were scrapped off and incubated in a tube with gentle agitation at 4 C for 60 minute. The microcentrifuge tube was centrifuged at 12,000×g for 20 minutes. The supernatant was gently removed and placed on ice. […]

[8] = listed as Kr1(1-91 Active Zone)frag SEQ ID NO: 19

COc1cccc2c1C(=O)c1c(O)c3c(c(O)c1C2=O)C[C@@](O)(C(=O)CO)C[C@@H]3O[C@H]1C[C@H](N)[C@H](O)[C@H](C)O1 [Doxorubicin] was tested, and the IC50 [1] was 7 nM, the IC50 [2] was 2440 nM and the IC50 [3] was 7 nM.

“Kr1(1-91 Active Zone)frag SEQ ID NO:19: ROR1 kringle domain (amino acids 308-400 ROR1), expressed in 293T cells” was tested, and the “% Proliferation Inhibition” value ([4]; Calu 6, 0.1 μg/ml) was 14 ± 2%, the “% Proliferation Inhibition” value ([4]; Calu 6, 1 μg/ml) was 31 ± 5% and the “% Proliferation Inhibition” value ([4]; Calu 6, 10 μg/ml) was 60 ± 5%. For the same molecule, the “% Proliferation Inhibition” value (U87 glioma cells; U87, 0.1 μg/ml) was 12 ± 7%, the “% Proliferation Inhibition” value (U87 glioma cells; U87, 1 μg/ml) was 45 ± 7% and the “% Proliferation Inhibition” value (U87 glioma cells; U87, 10 μg/ml) was 82 ± 8%. For the same molecule, the “% Proliferation Inhibition” value ([5]; HT29, 0.1 μg/ml) was 0 ± 8%, the “% Proliferation Inhibition” value ([5]; HT29, 1 μg/ml) was 10 ± 9% and the “% Proliferation Inhibition” value ([5]; HT29, 10 μg/ml) was 0 ± 5%. For the same molecule, the “% Proliferation Inhibition” value (293 Kidney fibroblasts; 0.1 μg/ml) was 0 ± 5%, the “% Proliferation Inhibition” value (293 Kidney fibroblasts; 1 μg/ml) was 0 ± 6% and the “% Proliferation Inhibition” value (293 Kidney fibroblasts; 10 μg/ml) was 0 ± 7%. The “inhibition of tumor cell proliferation” value (panel of tumor cells) was “potent dose response inhibition”, the “potency of inhibition of tumor cell proliferation relative to K5” value (panel of tumor cells) was “several fold more potent” and the “% Proliferation Inhibition” value (D54 glioma cells; D54, 0.1 μg/ml) was 15 ± 3%. For the same molecule, the “% Proliferation Inhibition” value (D54 glioma cells; D54, 1 μg/ml) was 52 ± 6%, the “% Proliferation Inhibition” value (D54 glioma cells; D54, 10 μg/ml) was 85 ± 3% and the “binding range to GRP78” value (GRP78) was “pM range”. For the same molecule, the “IL-10 expression of tolerogenic dendritic cells” value ([6]; 100 nM, FIG. 10) was “elimination of IL-10 expression”, the “maturity marker CD86 on DCs exposed to GRP78/LPS” value [6] was “completely reverses; also recorded: increases in the maturity marker CD86” and the “maturity marker CD86 on DCs exposed to GRP78/LPS” value [6, 8] was “increases in the maturity marker CD86”. The “activity for reversing the tolerogenic phenotype of dendritic cells induced by GRP78” value [6] was “potent nM activity”, the “activity for reversing the tolerogenic phenotype of dendritic cells induced by GRP78” value [6, 8] was “reverses” and the “potency in blocking B7H3 on DCs exposed to GRP78, relative to K5” value [6] was “at least 65 times”. The “potency in blocking B7H3 on DCs exposed to GRP78, relative to K5” value [6, 8] was “more potent”, the “percentage of B7H4+ marker on GRP78 treated DCs” value ([6]; increasing concentrations, FIGS. 11, 12) was “decreasing percentages” and the “% Proliferation Inhibition” value ([7]; MDA231, 0.1 μg/ml) was 33 ± 8%. For the same molecule, the “% Proliferation Inhibition” value ([7]; MDA231, 1 μg/ml) was 63 ± 12% and the “% Proliferation Inhibition” value ([7]; MDA231, 10 μg/ml) was 86 ± 10%.

B1: unfolded K5: unfolded K5(3-89 Active Zone)frag SEQ ID NO:1 kringle, control (protein)
chain: SEEDCMFGNGKGYRGKRATTVTGTPCQDWAAQEPHRHSIFTPETNPRAGLEKNYCRNPDGDVGGPWCYTTNPRKLYDYCDVPQCAAPKS
modifications: unfolded; Synthetic Peptide K5(3-89 Active Zone)
B1 was tested, and the “blocking of immunoprecipitation of ROR1 using GRP78” value (ROR1 binding to GRP78) was “not”.
